ChEMBL document CHEMBL1909294, “Translating clinical findings into knowledge in drug safety evaluation--drug induced liver injury prediction system (DILIps)” (PLoS Comput Biol, 2011)

Columns and labels:
Hepatotoxicity [1] = system: Hepatotoxicity;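 for HepSE cholelithiasis: hepatic side effect score for cholelithiasis, drawn from the DILIps training data for predicting drug-induced liver injury; call rule not given here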;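 for HepSE cirrhosis: cirrhosis hepatic side effect score taken from the DILIps (drug-induced liver injury prediction) training set; call rule not given here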;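 for HepSE hepatic necrosis: score of hepatic side effects for hepatic necrosis, drawn from the training data of DILIps, a prediction system for drug-induced liver injury; call rule not given here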;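 for HepSE hepatomegaly: hepatic side effect score for hepatomegaly, taken from the training set of the DILIps drug-induced liver injury prediction system; call rule not given here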;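 for HepSE jaundice: Jaundice-related hepatic side-effect score drawn from the training data of the DILIps (drug-induced liver injury prediction system); call rule not given here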; for HepSE liver disease: call rule not given here;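 for HepSE liver function tests abnormal: hepatic side effect score taken from the DILIps (drug-induced liver injury prediction system) training data, here covering abnormal liver function test findings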
Hepatotoxicity [2] = system: Hepatotoxicity; remark: listed apart in the source;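 for HepSE cholelithiasis: hepatic side effect score for cholelithiasis, drawn from the DILIps training data for predicting drug-induced liver injury; call rule not given here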;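 for HepSE cirrhosis: cirrhosis hepatic side effect score taken from the DILIps (drug-induced liver injury prediction) training set; call rule not given here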;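 for HepSE hepatic necrosis: score of hepatic side effects for hepatic necrosis, drawn from the training data of DILIps, a prediction system for drug-induced liver injury; call rule not given here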;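 for HepSE hepatomegaly: hepatic side effect score for hepatomegaly, taken from the training set of the DILIps drug-induced liver injury prediction system; call rule not given here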; for HepSE liver disease: call rule not given here;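 for HepSE liver function tests abnormal: hepatic side effect score taken from the DILIps (drug-induced liver injury prediction system) training data, here covering abnormal liver function test findings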
Hepatotoxicity [3] = system: Hepatotoxicity; remark: listed apart in the source;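 for HepSE cholelithiasis: hepatic side effect score for cholelithiasis, drawn from the DILIps training data for predicting drug-induced liver injury; call rule not given here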;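 for HepSE cirrhosis: cirrhosis hepatic side effect score taken from the DILIps (drug-induced liver injury prediction) training set; call rule not given here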;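 for HepSE hepatic necrosis: score of hepatic side effects for hepatic necrosis, drawn from the training data of DILIps, a prediction system for drug-induced liver injury; call rule not given here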;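 for HepSE hepatomegaly: hepatic side effect score for hepatomegaly, taken from the training set of the DILIps drug-induced liver injury prediction system; call rule not given here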; for HepSE liver disease: call rule not given here;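 for HepSE liver function tests abnormal: hepatic side effect score taken from the DILIps (drug-induced liver injury prediction system) training data, here covering abnormal liver function test findings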
Hepatotoxicity [4] = system: Hepatotoxicity; remark: listed apart in the source;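 for HepSE cholelithiasis: hepatic side effect score for cholelithiasis, drawn from the DILIps training data for predicting drug-induced liver injury; call rule not given here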;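 for HepSE cirrhosis: cirrhosis hepatic side effect score taken from the DILIps (drug-induced liver injury prediction) training set; call rule not given here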;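 for HepSE hepatic necrosis: score of hepatic side effects for hepatic necrosis, drawn from the training data of DILIps, a prediction system for drug-induced liver injury; call rule not given here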;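 for HepSE hepatomegaly: hepatic side effect score for hepatomegaly, taken from the training set of the DILIps drug-induced liver injury prediction system; call rule not given here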; for HepSE liver disease: call rule not given here;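 for HepSE liver function tests abnormal: hepatic side effect score taken from the DILIps (drug-induced liver injury prediction system) training data, here covering abnormal liver function test findings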
Hepatotoxicity [5] = system: Hepatotoxicity; remark: listed apart in the source; for HepSE liver disease: call rule not given here
Hepatotoxicity [6] = system: Hepatotoxicity; remark: listed apart in the source; for HepSE liver disease: call rule not given here
Hepatotoxicity [7] = system: Hepatotoxicity; remark: listed apart in the source
Hepatotoxicity [8] = system: Hepatotoxicity; remark: listed apart in the source
Hepatotoxicity [9] = system: Hepatotoxicity; remark: listed apart in the source
Hepatotoxicity [10] = system: Hepatotoxicity; remark: listed apart in the source
Hepatotoxicity [11] = system: Hepatotoxicity; remark: listed apart in the source
Hepatotoxicity [12] = system: Hepatotoxicity; remark: listed apart in the source
Hepatotoxicity [13] = system: Hepatotoxicity; remark: listed apart in the source
Hepatotoxicity [14] = system: Hepatotoxicity; remark: listed apart in the source

| SMILES | HepSE_liver function tests abnormal (Hepatotoxicity [1]) | HepSE_liver disease (Hepatotoxicity [2]) | HepSE_hepatomegaly (Hepatotoxicity [3]) | HepSE_cholelithiasis (Hepatotoxicity [4]) | HepSE_cirrhosis (Hepatotoxicity [5]) | HepSE_liver fatty (Hepatotoxicity [6]) | HepSE_hepatic necrosis (Hepatotoxicity [7]) | HepSE_jaundice (Hepatotoxicity [8]) | HepSE_cholecystitis (Hepatotoxicity [9]) | HepSE_hepatic failure (Hepatotoxicity [10]) | HepSE_bilirubinemia (Hepatotoxicity [11]) | HepSE_Combined Scores (Hepatotoxicity [12]) | HepSE_hepatitis (Hepatotoxicity [13]) | HepSE_elevated liver function tests (Hepatotoxicity [14]) | other results |
| --- | --- | --- | --- | --- | --- | --- | --- | --- | --- | --- | --- | --- | --- | --- | --- |
| CN1C[C@H](C(=O)N[C@]2(C)O[C@@]3(O)[C@@H]4CCCN4C(=O)[C@H](Cc4ccccc4)N3C2=O)C=C2c3cccc4[nH]cc(c34)C[C@H]21 [ERGOTAMINE] | 0 | 0 | 0 | 0 | 0 | 0 | 0 | 0 | 0 | 0 | 0 | 0 | 0 | 0 | – |
| C#Cc1cccc(Nc2ncnc3cc(OCCOC)c(OCCOC)cc23)c1 [ERLOTINIB] | 0 | 1 | 0 | 0 | 0 | 0 | 0 | 0 | 0 | 1 | 0 | 2 | 0 | 0 | – |
| CC[C@H]1OC(=O)[C@H](C)[C@@H](O[C@H]2C[C@@](C)(OC)[C@@H](O)[C@H](C)O2)[C@H](C)[C@@H](O[C@@H]2O[C@H](C)C[C@H](N(C)C)[C@H]2O)[C@](C)(O)C[C@@H](C)C(=O)[C@H](C)[C@@H](O)[C@]1(C)O [ERYTHROMYCIN] | 0 | 0 | 0 | 0 | 0 | 0 | 0 | 0 | 0 | 0 | 0 | 1 | 1 | 0 | – |
| COC(=O)CCc1ccc(OCC(O)CNC(C)C)cc1 (stereo not drawn) [ESMOLOL] | 0 | 0 | 0 | 0 | 0 | 0 | 0 | 0 | 0 | 0 | 0 | 0 | 0 | 0 | – |
| Clc1ccc2c(c1)C(c1ccccc1)=NCc1nncn1-2 [ESTAZOLAM] | 0 | 0 | 0 | 0 | 0 | 0 | 0 | 0 | 0 | 0 | 0 | 0 | 0 | 0 | – |
| C[C@]12CC[C@@H]3c4ccc(O)cc4CC[C@H]3[C@@H]1CC[C@@H]2O [ESTRADIOL] | 0 | 0 | 0 | 0 | 0 | 0 | 0 | 1 | 0 | 0 | 0 | 3 | 1 | 1 | – |
| C[C@]12CC[C@@H]3c4ccc(OC(=O)N(CCCl)CCCl)cc4CC[C@H]3[C@@H]1CC[C@@H]2O [ESTRAMUSTINE] | 0 | 0 | 0 | 0 | 0 | 0 | 0 | 0 | 0 | 0 | 0 | 0 | 0 | 0 | – |
| CC#C[C@]1(O)CC[C@H]2[C@@H]3CCc4cc(O)ccc4[C@H]3CC[C@@]21C [ESTROGEN] | 0 | 0 | 0 | 0 | 0 | 0 | 0 | 1 | 0 | 0 | 0 | 1 | 0 | 0 | – |
| C=C(CC)C(=O)c1ccc(OCC(=O)O)c(Cl)c1Cl [ETHACRYNIC ACID] | 1 | 0 | 0 | 0 | 0 | 0 | 0 | 1 | 0 | 0 | 0 | 2 | 0 | 0 | – |
| CC[C@@H](CO)NCCN[C@@H](CC)CO [ETHAMBUTOL] | 1 | 0 | 0 | 0 | 0 | 0 | 0 | 0 | 0 | 0 | 0 | 2 | 1 | 0 | – |
| CCc1cc(C(N)=S)ccn1 [ETHIONAMIDE] | – | – | – | – | – | – | – | – | – | – | – | – | – | – | HepSE_liver function tests abnormal (Hepatotoxicity [1]; Liver): 0; HepSE_liver disease (Hepatotoxicity [2]; Liver): 0; HepSE_hepatomegaly (Hepatotoxicity [3]; Liver): 0; HepSE_cholelithiasis (Hepatotoxicity [4]; Liver): 0; HepSE_cirrhosis (Hepatotoxicity [5]; Liver): 0; HepSE_liver fatty (Hepatotoxicity [6]; Liver): 0; HepSE_hepatic necrosis (Hepatotoxicity [7]; Liver): 0; HepSE_jaundice (Hepatotoxicity [8]; Liver): 1; HepSE_cholecystitis (Hepatotoxicity [9]; Liver): 0; HepSE_hepatic failure (Hepatotoxicity [10]; Liver): 0; HepSE_bilirubinemia (Hepatotoxicity [11]; Liver): 0; HepSE_Combined Scores (Hepatotoxicity [12]; Liver): 2; HepSE_hepatitis (Hepatotoxicity [13]; Liver): 1; HepSE_elevated liver function tests (Hepatotoxicity [14]; Liver): 0 |
| CCC1(C)CC(=O)NC1=O (stereo not drawn) [ETHOSUXIMIDE] | 0 | 0 | 0 | 0 | 0 | 0 | 0 | 0 | 0 | 0 | 0 | 0 | 0 | 0 | – |
| CCN1C(=O)NC(c2ccccc2)C1=O (stereo not drawn) [ETHOTOIN] | 0 | 0 | 0 | 0 | 0 | 0 | 0 | 0 | 0 | 0 | 0 | 0 | 0 | 0 | – |
| CC(O)(P(=O)(O)O)P(=O)(O)O [ETIDRONIC ACID] | 0 | 0 | 0 | 0 | 0 | 0 | 0 | 0 | 0 | 0 | 0 | 0 | 0 | 0 | – |
| CCc1cccc2c3c([nH]c12)C(CC)(CC(=O)O)OCC3 (stereo not drawn) [ETODOLAC] | 0 | 0 | 0 | 0 | 0 | 0 | 1 | 1 | 0 | 1 | 0 | 4 | 1 | 0 | – |
| CCOC(=O)c1cncn1[C@H](C)c1ccccc1 [ETOMIDATE] | 0 | 0 | 0 | 0 | 0 | 0 | 0 | 0 | 0 | 0 | 0 | 0 | 0 | 0 | – |
| COc1cc([C@@H]2c3cc4c(cc3[C@@H](O[C@@H]3O[C@@H]5CO[C@@H](C)O[C@H]5[C@H](O)[C@H]3O)[C@H]3COC(=O)[C@H]23)OCO4)cc(OC)c1O [ETOPOSIDE] | – | – | – | – | – | – | – | – | – | – | – | – | – | – | HepSE_liver function tests abnormal (Hepatotoxicity [1]; Liver): 0; HepSE_liver disease (Hepatotoxicity [2]; Liver): 0; HepSE_hepatomegaly (Hepatotoxicity [3]; Liver): 0; HepSE_cholelithiasis (Hepatotoxicity [4]; Liver): 0; HepSE_cirrhosis (Hepatotoxicity [5]; Liver): 0; HepSE_liver fatty (Hepatotoxicity [6]; Liver): 0; HepSE_hepatic necrosis (Hepatotoxicity [7]; Liver): 0; HepSE_jaundice (Hepatotoxicity [8]; Liver): 0; HepSE_cholecystitis (Hepatotoxicity [9]; Liver): 0; HepSE_hepatic failure (Hepatotoxicity [10]; Liver): 0; HepSE_bilirubinemia (Hepatotoxicity [11]; Liver): 0; HepSE_Combined Scores (Hepatotoxicity [12]; Liver): 0; HepSE_hepatitis (Hepatotoxicity [13]; Liver): 0; HepSE_elevated liver function tests (Hepatotoxicity [14]; Liver): 0 |
